Experimental data taken from US9790169B2, “IDO inhibitors” (BRISTOL-MYERS SQUIBB COMPANY, priority 2015, dated 2017).

These molecules were tested against human IDO1 (Homo sapiens, UniProt P14902) (assay: Assessment of human IDO-1 inhibitory activity in HEK cells (human IDO1/HEK293 cells, kynurenine read-out with Ehrlich reagent, absorbance 490 nm)). Settings: HEK Human IDO-1 cellular assay.
Format: cell-based
Parameters: expressed in transfected cells
Outline: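 HEK293 cells stably expressing human IDO1 were seeded at 10,000 per well in phenol red-free RPMI with 10% FBS, treated with compound for 20 h at 37 °C. Kynurenine was measured after TCA (0.2% final) and 30 min at 50 °C, using Ehrlich reagent, A490. IC50 normalised to DMSO (0%) and 500 nM reference standard (100%).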

Sequence of human IDO1 (P14902 whole entry): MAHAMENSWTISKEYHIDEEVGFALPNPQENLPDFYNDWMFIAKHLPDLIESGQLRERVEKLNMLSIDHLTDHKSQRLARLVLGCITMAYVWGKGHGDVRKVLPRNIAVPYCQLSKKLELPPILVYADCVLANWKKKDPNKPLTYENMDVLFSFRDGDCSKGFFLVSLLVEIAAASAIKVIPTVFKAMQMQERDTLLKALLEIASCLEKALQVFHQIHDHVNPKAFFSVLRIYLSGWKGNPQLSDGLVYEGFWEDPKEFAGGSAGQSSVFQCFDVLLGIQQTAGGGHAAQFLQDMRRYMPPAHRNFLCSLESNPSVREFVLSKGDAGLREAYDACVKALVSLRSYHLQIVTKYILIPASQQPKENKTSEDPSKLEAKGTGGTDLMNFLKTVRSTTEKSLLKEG

| Molecule | IC50 |
| --- | --- |
| COCC(CC(=O)O)c1ccc(N(CC2CC2)C2CCOCC2)c(Nc2ccc(C(N)=O)nc2)c1 (single isomer, unassigned) [Example 688, 3-(3-((6-carbamoylpyridin-3-yl)amino)-4-((cyclopropylmethyl) (tetrahydro-2H-pyran-4-yl)amino)phenyl)-4-methoxybutanoic acid] | > 50 nM |
| CC[C@@H](CC(=O)O)c1ccc(N(CC)C2CCOCC2)c(Nc2ccc(C#N)cc2)c1 (single isomer, unassigned) [Example 458] | < 5 nM |
| CC[C@@H](CC(=O)O)c1ccc(N(CC(C)(C)O)C2CCCCC2)c(Nc2ccc(OC(F)F)cc2)c1 (single isomer, unassigned) [Example 226] | < 5 nM |
| CCOc1ccc(NC(=O)Nc2cc(C(COC)CC(=O)O)cc(F)c2N(CC(C)C)C2CCCCC2)c(F)c1 (single isomer, unassigned) [Example 1157, 3-(4-(cyclohexyl(isobutyl)amino)-3-(3-(4-ethoxy-2-fluorophenyl)ureido)-5-fluorophenyl)-4-methoxybutanoic acid] | < 5 nM |
| CCC(CC(=O)O)c1cc(NC(=O)Nc2ccc(C)cc2F)c(N(CC(C)C)C2CCCCC2)cc1F (single isomer, unassigned) [Example 1120, 3-(4-(Cyclohexyl(isobutyl)amino)-2-fluoro-5-(3-(2-fluoro-4-methylphenyl)ureido)phenyl)pentanoic acid] | < 5 nM |
| CCC(CC(=O)O)c1cc(F)c(N(CC(C)C)CC(C)C)c(Nc2ccc3nc(C)sc3c2)c1 (single isomer, unassigned) [Example 95, 3-(4-(Diisobutylamino)-3-fluoro-5-((2-methylbenzo[d]thiazol-6-yl)amino)phenyl)pentanoic acid] | > 50 nM |
| CCC(CC(=O)O)c1cc(F)c(N(CC(C)C)CC(C)C)c(NC(=O)Nc2ccccc2Cl)c1 (racemic) [Example 975, (+/−)-3-(3-(3-(2-chlorophenyl)ureido)-4-(diisobutylamino)-5-fluorophenyl)pentanoic acid] | < 50 nM |
| CCOc1ccc(NC(=O)Nc2cc(C(COC)CC(=O)O)cc(F)c2N(CC(C)C)CC(C)C)c(F)c1 (single isomer, unassigned) [Example 1178, 3-(4-(Diisobutylamino)-3-(3-(4-ethoxy-2-fluorophenyl)ureido)-5-fluorophenyl)-4-methoxybutanoic acid] | < 50 nM |
| CCN(c1ccc([C@@H](COC)CC(=O)O)cc1NC(=O)Nc1ccc(OC)cc1F)C1CCOCC1 (single isomer, unassigned) [Example 424] | > 50 nM |
| CCC(CC(=O)O)c1ccc(N2CCC[C@@H]2C(C)(C)O)c(Nc2ccc(C#N)cc2)c1 (single isomer, unassigned) [Example 782] | < 50 nM |
| CCC(CC(=O)O)c1ccc(N2CCC[C@H]2C(C)(C)O)c(NC(=O)Nc2ccc(OC)cc2)c1 (single isomer, unassigned) [Example 811] | > 50 nM |
| CC[C@@H](CC(=O)O)c1ccc(N(CC)C2CCOCC2)c(NC(=O)Nc2ccc(Cl)cc2F)c1 (single isomer, unassigned) [Example 489] | < 5 nM |
| CCN(c1ccc(C(C)CC(=O)O)cc1Nc1ccc(C#N)cc1)C1CCOCC1 (single isomer, unassigned) [Example 613, 3-(3-((4-cyanophenyl)amino)-4-(ethyl(tetrahydro-2H-pyran-4-yl)amino)phenyl) butanoic acid] | < 5 nM |
| CCOc1ncc(Nc2cc([C@@H](COC)CC(=O)O)ccc2N(CC)C2CCOCC2)cn1 (single isomer, unassigned) [Example 351] | < 50 nM |
| CCc1ccc(Nc2cc([C@H](CC)CC(=O)O)ccc2N(CC)C2CCOCC2)cc1 (single isomer, unassigned) [Example 517] | < 5 nM |
| CCC(CC(=O)O)c1ccc(N(CC2CC2)C(C)C)c(Nc2ccc(Cl)cc2)c1 (single isomer, unassigned) [Example 714, 3-(3-((4-chlorophenyl)amino)-4-((cyclopropylmethyl) (isopropyl)amino)phenyl) pentanoic acid] | < 5 nM |
| CC[C@H](CC(=O)O)c1ccc(N2CCOC[C@@H]2C(C)C)c(NC(=O)Nc2cc(C)on2)c1 (single isomer, unassigned) [Example 88] | > 50 nM |
| CCOc1ncc(Nc2cc(C(C)(C)CC(=O)O)ccc2N(CC(C)C)CC(C)C)cn1 [Example 148, 3-(4-(diisobutylamino)-3-((2-ethoxypyrimidin-5-yl)amino)phenyl)-3-methyl butanoic acid] | < 50 nM |
| CCC(CC(=O)O)c1ccc(N(CC(C)C)C2CCCCC2)c(NC(=O)Cc2cc(F)ccc2F)c1 (single isomer, unassigned) [Example 1098 E2] | < 5 nM |
| CC[C@H](CC(=O)O)c1ccc(N(CC2CC2)CC(C)(C)O)c(Nc2ccc(Cl)cc2)c1 (single isomer, unassigned) [Example 271] | < 5 nM |

| Molecule | IC50 |
| --- | --- |
| COCC(CC(=O)O)c1ccc(N(CC(C)C)C2CCOCC2)c(NC(=O)Nc2ccc(Cl)cc2F)c1 (single isomer, unassigned) [Example 1210, 3-(3-(3-(4-Chloro-2-fluorophenyl)ureido)-4-(isobutyl(tetrahydro-2H-pyran-4-yl)amino)phenyl)-4-methoxybutanoic acid] | < 50 nM |
| COCC(CC(=O)O)c1cc(F)c(N(CC(C)C)C2CCCCC2)c(NC(=O)Nc2cc(C)on2)c1 (single isomer, unassigned) [Example 1167, 3-(4-(cyclohexyl(isobutyl)amino)-3-fluoro-5-(3-(5-methylisoxazol-3-yl)ureido)phenyl)-4-methoxybutanoic acid] | < 5 nM |
| CCC(CC(=O)O)c1ccc(N2CCC[C@H]2C(C)(C)O)c(NC(=O)Nc2ccc(Cl)cc2F)c1 (single isomer, unassigned) [Example 812] | > 50 nM |
| CCCN(c1ccc([C@@H](COC)CC(=O)O)cc1Nc1ccc2nc(C)sc2c1)C1CCOCC1 (single isomer, unassigned) [Example 560] | < 50 nM |
| CCN(c1ccc(C(C)(C)CC(=O)O)cc1Nc1ccc(Cl)cc1)C1CCC(C)(O)CC1 (stereo not drawn) [Example 1, 3-(3-((4-Chlorophenyl)amino)-4-(ethyl(4-hydroxy-4-methylcyclohexyl)amino)phenyl)-3-methylbutanoic acid] | < 5 nM |
| CCC(CC(=O)O)c1ccc(N(CC)C2CCOCC2)c(NC(=O)Nc2ccc(C)cc2)c1 (single isomer, unassigned) [Example 487 Enantiomer 1, 3-(4-(Ethyl(tetrahydro-2H-pyran-4-yl)amino)-3-(3-(p-tolyl)ureido)phenyl)pentanoic acid] | < 5 nM |
| 3-(4-(isobutyl(tetrahydro-2H-pyran-4-yl)amino)-3-(3-(4-phenoxyphenyl)ureido)phenyl)butanoic acid [Example 962] | > 50 nM |
| CCOc1ncc(Nc2cc([C@H](CC)CC(=O)O)ccc2N(CC)C2CCOCC2)cn1 (single isomer, unassigned) [Example 498] | < 5 nM |
| CCN(c1ccc(C(CC(=O)O)c2ccccc2)cc1NC(=O)Nc1ccc(Cl)cc1F)C1CCOCC1 (single isomer, unassigned) [Example 585, 3-(3-(3-(4-chloro-2-fluorophenyl)ureido)-4-(ethyl (tetrahydro-2H-pyran-4-yl)amino)phenyl)-3-phenylpropanoic acid] | < 50 nM |
| CCC(CC(=O)O)c1ccc(N(CC2CC2)C2CCOCC2)c(NC(=O)Nc2cc(C)on2)c1 (single isomer, unassigned) [Example 697, 3-(4-((Cyclopropylmethyl)(tetrahydro-2H-pyran-4-yl)amino)-3-(3-(5-methylisoxazol-3-yl)ureido)phenyl)pentanoic acid] | > 50 nM |
| CCOc1ccc(NC(=O)Nc2cc([C@H](CC)CC(=O)O)ccc2N2CCC[C@H]2C(C)(C)O)cc1 (single isomer, unassigned) [Example 810] | > 50 nM |
| CCOc1ncc(Nc2cc(C(C)CC(=O)O)ccc2N(CC)C2CCOCC2)cn1 (single isomer, unassigned) [Example 619, 3-(3-((2-ethoxypyrimidin-5-yl)amino)-4-(ethyl (tetrahydro-2H-pyran-4-yl)amino)phenyl)butanoic acid] | < 50 nM |
| COCC(CC(=O)O)c1ccc(N(CC2CC2)C2CCOCC2)c(NC(=O)Nc2ccc(C)cc2)c1 (single isomer, unassigned) [Example 676, 3-(4-((Cyclopropylmethyl)(tetrahydro-2H-pyran-4-yl)amino)-3-(3-(p-tolyl)ureido)phenyl)-4-methoxybutanoic acid] | > 50 nM |
| CCOc1ncc(Nc2cc(C(CC)CC(=O)O)ccc2N2C[C@@H](C)O[C@@H](C)C2)cn1 (single isomer, unassigned) [Example 756] | > 50 nM |
| COCC(CC(=O)O)c1ccc(N(CC(C)C)C2CCCCC2)c(NC(=O)Nc2cncnc2)c1 (single isomer, unassigned) [991-2] | < 5 nM |
| COCC(CC(=O)O)c1cc(F)c(N(CC(C)C)CC(C)C)c(NC(=O)Nc2ccc(OC(F)(F)F)cc2)c1 (single isomer, unassigned) [Example 1192, 3-(4-(Diisobutylamino)-3-fluoro-5-(3-(4-(trifluoromethoxy)phenyl)ureido)phenyl)-4-methoxybutanoic acid] | < 50 nM |
| CCOc1ccc(NC(=O)Nc2cc(C(COC)CC(=O)O)cc(F)c2N(CC(C)C)CC(C)C)cc1 (single isomer, unassigned) [Example 1179, 3-(4-(Diisobutylamino)-3-(3-(4-ethoxyphenyl)ureido)-5-fluorophenyl)-4-methoxybutanoic acid] | < 50 nM |
| CCC(CC(=O)O)c1ccc(N(CC)C2CCCOC2)c(NC(=O)Nc2ccc(C)cc2)c1 (single isomer, unassigned) [Example 73 D2, 3-(4-(Ethyl(tetrahydro-2H-pyran-3-yl)amino)-3-(3-(p-tolyl)ureido)phenyl)pentanoic acid] | < 5 nM |
| CCC(CC(=O)O)c1cc(F)c(N(CC(C)C)CC(C)C)c(NC(=O)Cc2ccc(C)cc2F)c1 (racemic) [Example 1083] | < 5 nM |
